A short description of this data set: Cytotoxicity in pre-osteoblasts (unknown origin) assessed as cell death upto 5 uM by CCK8 assay. The format is toxicity, cell-based. As to conditions: pre-osteoblast. (Tetrazolium assays rely on reduction of a dye to a coloured formazan, in cell work by metabolically active cells.)

As to `CC[C@H](C)[C@H](NC(=O)[C@H](CCC(=O)O)NC(=O)[C@H](CO)NC(=O)[C@@H](NC(=O)[C@H](CO)NC(C)=O)C(C)C)C(=O)N[C@@H](CCC(N)=O)C(=O)N[C@@H](CC(C)C)C(=O)N[C@@H](CCSC)C(=O)N[C@@H](C)C(=O)N[C@@H](CC(N)=O)C(=O)N[C@@H](CC(C)C)C(=O)NCC(=O)N[C@@H](CCCCN)C(=O)N[C@@H](Cc1cnc[nH]1)C(=O)N[C@@H](CC(C)C)C(=O)N[C@@H](CC(N)=O)C(=O)N[C@@H](CO)C(=O)N[C@@H](CCSC)C(=O)N[C@@H](CCC(=O)O)C(=O)N[C@@H](CCCNC(=N)N)C(=O)N[C@H](C(=O)N[C@@H](CCC(=O)O)C(=O)N[C@@H](Cc1c[nH]c2ccccc12)C(=O)N[C@@H](CC(C)C)C(=O)N[C@@H](CCCNC(=N)N)C(=O)N[C@@H](CCCCN)C(=O)N[C@@H](CCCCN)C(=O)N[C@@H](CC(C)C)C(=O)N[C@@H](CCC(N)=O)C(=O)N[C@@H](CC(=O)O)C(=O)N[C@H](C(=O)N[C@@H](Cc1cnc[nH]1)C(=O)N[C@@H](CC(N)=O)C(=O)N[C@@H](Cc1ccccc1)C(N)=O)C(C)C)C(C)C`, the Activity entry was “Non-Toxic”. In the case of `CC[C@H](C)[C@H](NC(=O)[C@H](CCC(=O)O)NC(=O)[C@H](CO)NC(=O)[C@@H](NC(=O)[C@H](CO)NC(C)=O)C(C)C)C(=O)N[C@@H](CCC(N)=O)C(=O)N[C@@H](CC(C)C)C(=O)N[C@@H](CCSC)C(=O)N[C@@H](Cc1cnc[nH]1)C(=O)N[C@@H](CC(N)=O)C(=O)N[C@@H](CC(C)C)C(=O)NCC(=O)N[C@@H](CCCCN)C(=O)N[C@@H](Cc1cnc[nH]1)C(=O)N[C@@H](CC(C)C)C(=O)N[C@@H](CC(N)=O)C(=O)N[C@@H](CO)C(=O)N[C@@H](CCSC)C(=O)N[C@@H](CCC(=O)O)C(=O)N[C@@H](CCCNC(=N)N)C(=O)N[C@H](C(=O)N[C@@H](CCC(=O)O)C(=O)N[C@@H](Cc1c[nH]c2ccccc12)C(=O)N[C@@H](CC(C)C)C(=O)N[C@@H](CCCNC(=N)N)C(=O)N[C@@H](C)C(=O)N[C@@H](CCCCN)C(=O)N[C@@H](CC(C)C)C(=O)N[C@@H](CCC(N)=O)C(=O)N[C@@H](CC(=O)O)C(=O)N[C@H](C(=O)N[C@@H](Cc1cnc[nH]1)C(=O)N[C@@H](CC(N)=O)C(=O)N[C@@H](Cc1ccccc1)C(N)=O)C(C)C)C(C)C`, the Activity entry is recorded as “Non-Toxic”.

Turning to `CC[C@H](C)[C@H](NC(=O)[C@H](CCC(=O)O)NC(=O)[C@H](CO)NC(=O)[C@@H](NC(=O)[C@H](CO)NC(C)=O)C(C)C)C(=O)N[C@@H](CCC(N)=O)C(=O)N[C@@H](CC(C)C)C(=O)N[C@@H](C)C(=O)N[C@@H](Cc1cnc[nH]1)C(=O)N[C@@H](CC(N)=O)C(=O)N[C@@H](CC(C)C)C(=O)NCC(=O)N[C@@H](CCCCN)C(=O)N[C@@H](Cc1cnc[nH]1)C(=O)N[C@@H](CC(C)C)C(=O)N[C@@H](CC(N)=O)C(=O)N[C@@H](CO)C(=O)N[C@@H](CCSC)C(=O)N[C@@H](CCC(=O)O)C(=O)N[C@@H](CCCNC(=N)N)C(=O)N[C@H](C(=O)N[C@@H](CCC(=O)O)C(=O)N[C@@H](Cc1c[nH]c2ccccc12)C(=O)N[C@@H](CC(C)C)C(=O)N[C@@H](CCCNC(=N)N)C(=O)N[C@@H](CCCCN)C(=O)N[C@@H](CCCCN)C(=O)N[C@@H](CC(C)C)C(=O)N[C@@H](CCC(N)=O)C(=O)N[C@@H](CC(=O)O)C(=O)N[C@H](C(=O)N[C@@H](Cc1cnc[nH]1)C(=O)N[C@@H](CC(N)=O)C(=O)N[C@@H](Cc1ccccc1)C(N)=O)C(C)C)C(C)C`, the Activity entry is “Non-Toxic”. The value for `CC[C@H](C)[C@H](NC(=O)[C@H](CCC(=O)O)NC(=O)[C@H](CO)NC(=O)[C@@H](NC(=O)[C@H](CO)NC(C)=O)C(C)C)C(=O)N[C@@H](CCC(N)=O)C(=O)N[C@@H](CC(C)C)C(=O)N[C@@H](CCSC)C(=O)N[C@@H](Cc1cnc[nH]1)C(=O)N[C@@H](CC(N)=O)C(=O)N[C@@H](CC(C)C)C(=O)NCC(=O)N[C@@H](CCCCN)C(=O)N[C@@H](Cc1cnc[nH]1)C(=O)N[C@@H](CC(C)C)C(=O)N[C@@H](CC(N)=O)C(=O)N[C@@H](CO)C(=O)N[C@@H](CCSC)C(=O)N[C@@H](CCC(=O)O)C(=O)N[C@@H](CCCNC(=N)N)C(=O)N[C@H](C(=O)N[C@@H](CCC(=O)O)C(=O)N[C@@H](Cc1c[nH]c2ccccc12)C(=O)N[C@@H](CC(C)C)C(=O)N[C@@H](CCCNC(=N)N)C(=O)N[C@@H](CCCCN)C(=O)N[C@@H](CCCCN)C(=O)N[C@@H](CC(C)C)C(=O)N[C@@H](CCC(N)=O)C(=O)N[C@@H](CC(=O)O)C(=O)N[C@H](C(=O)N[C@@H](Cc1cnc[nH]1)C(=O)N[C@@H](CC(N)=O)C(=O)N[C@@H](C)C(N)=O)C(C)C)C(C)C` was “Non-Toxic”; that for `CC[C@H](C)[C@H](NC(=O)[C@H](CCC(=O)O)NC(=O)[C@H](CO)NC(=O)[C@@H](NC(=O)[C@H](CO)NC(C)=O)C(C)C)C(=O)N[C@@H](CCC(N)=O)C(=O)N[C@@H](CC(C)C)C(=O)N[C@@H](CCSC)C(=O)N[C@@H](Cc1cnc[nH]1)C(=O)N[C@@H](CC(N)=O)C(=O)N[C@@H](CC(C)C)C(=O)N[C@@H](C)C(=O)N[C@@H](CCCCN)C(=O)N[C@@H](Cc1cnc[nH]1)C(=O)N[C@@H](CC(C)C)C(=O)N[C@@H](CC(N)=O)C(=O)N[C@@H](CO)C(=O)N[C@@H](CCSC)C(=O)N[C@@H](CCC(=O)O)C(=O)N[C@@H](CCCNC(=N)N)C(=O)N[C@H](C(=O)N[C@@H](CCC(=O)O)C(=O)N[C@@H](Cc1c[nH]c2ccccc12)C(=O)N[C@@H](CC(C)C)C(=O)N[C@@H](CCCNC(=N)N)C(=O)N[C@@H](CCCCN)C(=O)N[C@@H](CCCCN)C(=O)N[C@@H](CC(C)C)C(=O)N[C@@H](CCC(N)=O)C(=O)N[C@@H](CC(=O)O)C(=O)N[C@H](C(=O)N[C@@H](Cc1cnc[nH]1)C(=O)N[C@@H](CC(N)=O)C(=O)N[C@@H](Cc1ccccc1)C(N)=O)C(C)C)C(C)C` was “Non-Toxic”; that for `CC[C@H](C)[C@H](NC(=O)[C@H](C)NC(=O)[C@H](CO)NC(=O)[C@@H](NC(=O)[C@H](CO)NC(C)=O)C(C)C)C(=O)N[C@@H](CCC(N)=O)C(=O)N[C@@H](CC(C)C)C(=O)N[C@@H](CCSC)C(=O)N[C@@H](Cc1cnc[nH]1)C(=O)N[C@@H](CC(N)=O)C(=O)N[C@@H](CC(C)C)C(=O)NCC(=O)N[C@@H](CCCCN)C(=O)N[C@@H](Cc1cnc[nH]1)C(=O)N[C@@H](CC(C)C)C(=O)N[C@@H](CC(N)=O)C(=O)N[C@@H](CO)C(=O)N[C@@H](CCSC)C(=O)N[C@@H](CCC(=O)O)C(=O)N[C@@H](CCCNC(=N)N)C(=O)N[C@H](C(=O)N[C@@H](CCC(=O)O)C(=O)N[C@@H](Cc1c[nH]c2ccccc12)C(=O)N[C@@H](CC(C)C)C(=O)N[C@@H](CCCNC(=N)N)C(=O)N[C@@H](CCCCN)C(=O)N[C@@H](CCCCN)C(=O)N[C@@H](CC(C)C)C(=O)N[C@@H](CCC(N)=O)C(=O)N[C@@H](CC(=O)O)C(=O)N[C@H](C(=O)N[C@@H](Cc1cnc[nH]1)C(=O)N[C@@H](CC(N)=O)C(=O)N[C@@H](Cc1ccccc1)C(N)=O)C(C)C)C(C)C` was “Non-Toxic”.

(Values after ChEMBL document CHEMBL5625277, “Systematical mutational analysis of teriparatide on anti-osteoporosis activity by alanine scanning” (Bioorg Med Chem Lett, 2024).)
